Experimental data as given in patent US11345694B2, “Antibacterial compounds” (DISCUVA LTD., priority 2017, dated 2022).
≈ marks a conversion by molar mass, not a printed value.

Assays:
[1] = tested on: E. coli NCTC 13441 (UPEC); assay: MIC broth microdilution; assay type: cell-based, Escherichia coli; conditions: Escherichia coli, NCTC13441
Protocol: (§1) Minimum Inhibitory Concentrations (MICs) versus planktonic bacteria are determined by the broth microdilution procedure according to the guidelines of the Clinical and Laboratory Standards Institute (Clinical and Laboratory Standards Institute. Methods for Dilution Antimicrobial Susceptibility Tests for Bacteria That Grow Aerobically; Approved Standard-tenth Edition. CLSI document M07-A10, 2015). The broth dilution method involves a two-fold serial dilution of compounds in 96-well microtitre plates, giving a final concentration range of 0.39-200 μM and a maximum final concentration of 2% DMSO. The bacterial strains tested include Escherichia coli K12 (EC), E. coli NCTC 13441 (UPEC), Staphylococcus aureus ATCC 35556 (SA), Acinetobacter baumannii ATCC 17978 (AB), Pseudomonas aeruginosa ATCC 33359 (PA), Enterobacter cloacae DSM 30054 (Ed), Serratia marcescens SL1344 (Sm), Salmonella typhimurium XNAA5 (St), Klebsiella pneumoniae ATCC 10031 (KP2), K. pneumoniae NCTC 13438 (KP1), K. pneumoniae ATCC 700603 (KP3), Klebsiella pneumoniae ATCC 51504 (KP4), K. pneumoniae H154680676 (KP5), K. pneumoniae H154020667 (KP6), K. pneumoniae H154640784 (KP7), K. pneumoniae H154600588 (KP8), K. pneumoniae H154300688 (KP9), K. pneumoniae H151440671 (KP10). Strains are grown in cation-adjusted Müller-Hinton broth or on Luria Bertoni agar at 37° C. in an ambient atmosphere. The MIC is determined as the lowest concentration of compound that inhibits growth following a 20-24 hour incubation period.

[2] = tested on: Acinetobacter baumannii ATCC 17978 (AB); assay: MIC broth microdilution; assay type: cell-based; conditions: ATCC17978
Protocol: as §1

[3] = tested on: Escherichia coli K12 (EC); assay: MIC broth microdilution; assay type: cell-based
Protocol: as §1

[4] = tested on: Klebsiella pneumoniae ATCC 10031 (KP2); assay: MIC broth microdilution; assay type: cell-based; conditions: ATCC10031
Protocol: as §1

[5] = tested on: Pseudomonas aeruginosa ATCC 33359 (PA); assay: MIC broth microdilution; assay type: cell-based; conditions: ATCC33359
Protocol: as §1

[6] = tested on: Staphylococcus aureus ATCC 35556 (SA); assay: MIC broth microdilution; assay type: cell-based; conditions: ATCC35556
Protocol: as §1

[7] = tested on: K. pneumoniae NCTC 13438 (KP1); assay: MIC broth microdilution; assay type: cell-based, Klebsiella pneumoniae; conditions: Klebsiella pneumoniae, NCTC13438
Protocol: as §1

[8] = tested on: human hepatocarcinoma cell line ATCC HB-8065 (HepG2); assay: Human cell viability (CellTiter-Glo); assay type: cell-based; conditions: Homo sapiens; HepG2 cells, 24 h incubation, CellTiter-Glo luminescence, 0.2-100 μM; read-out: IC50 values against the HepG2 cell line
Protocol: Compounds are assessed for potential non-specific cytotoxic effects against the human hepatocarcinoma cell line ATCC HB-8065 (HepG2). HepG2 cells are seeded at 20,000 cells/well in 96-well microtitre plates in minimal essential medium (MEM) supplemented with a final concentration of 10% FBS. After 24 h, compound dilutions are prepared in MEM supplemented with a final concentration of 1% FBS, and added to the cells. Compounds are tested in two-fold serial dilutions over a final concentration range of 0.2-100 μM in a final DMSO concentration of 1% vol/vol. Thioridazine is used as a positive control. Cells are incubated with compound at 37° C. and 5% CO2 for a further 24 h, after which time the CellTiter-Glo reagent (Promega) is added. Luminescence is measured on a Perkin Elmer Envision plate reader. Data are analysed using a 4 parameter logistic regression to determine the concentration of compound that inhibits cell viability by fifty percent (IC50).

| Structure (SMILES) | MIC [1] | MIC [2] | MIC [3] | MIC [4] | MIC [5] | MIC [6] | MIC [7] | IC50 [8] |
| --- | --- | --- | --- | --- | --- | --- | --- | --- |
| Cc1cc(-c2[nH]c(N)nc2-c2ccc3nccnc3c2)ccn1 [Example 31, 5-(2-Methylpyridin-4-yl)-4-(quinoxalin-6-yl)-1H-imidazol-2-amine] | 1 to 10 µM (≈ 0.302 to 3.02 µg/mL) | > 100 µM | 1 to 10 µM (≈ 0.302 to 3.02 µg/mL) | ≤ 1 µM | > 100 µM | > 100 µM | 10 to 100 µM (≈ 3.02 to 30.2 µg/mL) | > 100 µM |
| Cc1cc(-c2[nH]c(N)nc2-c2ccc3c(c2)NC(=O)C(C)O3)ccn1 (centres unmarked) [Example 33, 6-(2-Amino-5-(2-methylpyridin-4-yl)-1H-imidazol-4-yl)-2-methyl-2H-benzo[b][1,4]oxazin-3(4H)-one] | 1 to 10 µM (≈ 0.335 to 3.35 µg/mL) | > 100 µM | 1 to 10 µM (≈ 0.335 to 3.35 µg/mL) | ≤ 1 µM | > 100 µM | > 100 µM | 10 to 100 µM (≈ 3.35 to 33.5 µg/mL) | > 100 µM |
| Cc1cc(-c2[nH]c(N)nc2-c2ccc3c(c2)NCC(C)O3)ccn1 (centres unmarked) [Example 34, 4-(2-Methyl-3,4-dihydro-2H-benzo[b][1,4]oxazin-6-yl)-5-(2-methylpyridin-4-yl)-1H-imidazol-2-amine] | 1 to 10 µM (≈ 0.321 to 3.21 µg/mL) | > 100 µM | 1 to 10 µM (≈ 0.321 to 3.21 µg/mL) | ≤ 1 µM | > 100 µM | > 100 µM | 1 to 10 µM (≈ 0.321 to 3.21 µg/mL) | > 100 µM |
| Cc1cc(-c2[nH]c(N)nc2-c2ccc(OCC#N)cc2)ccn1 [Example 35, 2-(4-(2-Amino-5-(2-methylpyridin-4-yl)-1H-imidazol-4-yl)phenoxy)acetonitrile] | 1 to 10 µM (≈ 0.305 to 3.05 µg/mL) | > 100 µM | 1 to 10 µM (≈ 0.305 to 3.05 µg/mL) | ≤ 1 µM | > 100 µM | > 100 µM | 10 to 100 µM (≈ 3.05 to 30.5 µg/mL) | > 100 µM |
| Cc1cc(-c2[nH]c(N)nc2-c2ccc3c(c2)NCCO3)cc(C)n1 [Example 36, 4-(3,4-Dihydro-2H-benzo[b][1,4]oxazin-6-yl)-5-(2,6-dimethylpyridin-4-yl)-1H-imidazol-2-amine] | ≤ 1 µM | > 100 µM | 1 to 10 µM (≈ 0.321 to 3.21 µg/mL) | ≤ 1 µM | > 100 µM | > 100 µM | 1 to 10 µM (≈ 0.321 to 3.21 µg/mL) | > 100 µM |
| Cc1cc(-c2[nH]c(N)nc2-c2ccc3oc(C)nc3c2)ccn1 [Example 37, 4-(2-Methylbenzo[d]oxazol-5-yl)-5-(2-methylpyridin-4-yl)-1H-imidazol-2-amine] | 1 to 10 µM (≈ 0.305 to 3.05 µg/mL) | > 100 µM | 1 to 10 µM (≈ 0.305 to 3.05 µg/mL) | ≤ 1 µM | > 100 µM | > 100 µM | 10 to 100 µM (≈ 3.05 to 30.5 µg/mL) | > 100 µM |
| Nc1nc(-c2ccc3c(c2)CCO3)c(-c2ccncc2)[nH]1 [Example 38, 4-(2,3-Dihydrobenzofuran-5-yl)-5-(pyridin-4-yl)-1H-imidazol-2-amine] | ≤ 1 µM | > 100 µM | ≤ 1 µM | ≤ 1 µM | > 100 µM | > 100 µM | 1 to 10 µM (≈ 0.278 to 2.78 µg/mL) | > 100 µM |
| Nc1nc(-c2ccc3c(c2)NCCO3)c(-c2ccncc2)[nH]1 [Example 39, 4-(3,4-Dihydro-2H-benzo[b][1,4]oxazin-6-yl)-5-(pyridin-4-yl)-1H-imidazol-2-amine] | ≤ 1 µM | > 100 µM | ≤ 1 µM | ≤ 1 µM | > 100 µM | > 100 µM | 10 to 100 µM (≈ 2.93 to 29.3 µg/mL) | > 100 µM |
| CNc1cc(-c2[nH]c(N)nc2-c2ccc3c(c2)NCCO3)ccn1 [Example 40, 4-(2-Amino-4-(3,4-dihydro-2H-benzo[b][1,4]oxazin-6-yl)-1H-imidazol-5-yl)-N-methylpyridin-2-amine] | ≤ 1 µM | > 100 µM | 1 to 10 µM (≈ 0.322 to 3.22 µg/mL) | ≤ 1 µM | > 100 µM | > 100 µM | 1 to 10 µM (≈ 0.322 to 3.22 µg/mL) | > 100 µM |
| Nc1cc(-c2[nH]c(N)nc2-c2ccc3c(c2)NCCO3)ccn1 [Example 42, 4-(2-Amino-4-(3,4-dihydro-2H-benzo[b][1,4]oxazin-6-yl)-1H-imidazol-5-yl)pyridin-2-amine] | 1 to 10 µM (≈ 0.308 to 3.08 µg/mL) | > 100 µM | 1 to 10 µM (≈ 0.308 to 3.08 µg/mL) | ≤ 1 µM | > 100 µM | > 100 µM | 10 to 100 µM (≈ 3.08 to 30.8 µg/mL) | > 100 µM |
